Data from article PMC7024391, “Trypanocidal Activity of Flavanone Derivatives” (Molecules, 2020).
Like-named read-outs stand apart in the source and are kept apart here.

Assays:
[1] = system: T. cruzi (Trypomastigote); parameters: method as in Ganapaty et al. [8]; details: ref Ganapaty et al. [8]; cited from earlier work
[2] = system: T. cruzi (Trypomastigote); parameters: method as in Grecco et al. [9],[10],[11],[12]; details: ref Grecco et al. [9],[10],[11],[12]; cited from earlier work
[3] = system: trypomastigote form of T. cruzi; parameters: method as in Ambrozin et al.; details: ref Ambrozin et al.; cited from earlier work
[4] = In vitro cytotoxic test on uninfected L-929 cells (alamarBlue); format: cell-based, mouse; details: mouse, uninfected L-929 cells; mammalian L929 cells, 96 h, alamarBlue; ± 2.0; read-out: Cytotoxicity CC50(μM) ± 2.0
Experimental: (§1) The active compounds were tested in vitro for determination of cellular toxicity against uninfected L-929 cells using the alamarBlue® dye. The cells were exposed to compounds at increasing concentrations starting at IC50 value for T. cruzi. After 96 h of incubation with the tested compounds, the alamarBlue® was added and the absorbance at 570 and 600 nm measured after 4–6 h. The cell viability was expressed as the percentage of difference in the reduction between treated and untreated cells. IC50 values were calculated by linear interpolation, and the selectivity index (SI) was determined based on the ratio of the IC50 value in the host cell divided by the IC50 value of the parasite. Quadruplicates were run in the same plate, and the experiments were repeated at least once.

L929 cells = test: as above; format: cell-based, mouse; details: CC50 L929 / IC50 T. cruzi
Experimental: as §1

[5] = system: Trypanosoma cruzi (amastigotes and trypomastigotes), Tulahuen strain; test: Anti-Trypanosoma cruzi activity assay (amastigotes and trypomastigotes) in infected L929 cells, beta-galactosidase reporter; format: cell-based; details: Trypanosoma cruzi, 96 h incubation, ± 0.2, read-out: Trypanocide IC50(μM) ± 0.2
Experimental: Flavanone derivatives were evaluated for anti-T. cruzi activity against the intracellular forms of the parasite. Although the use of epimastigotes present in the midgut vector may be utilized for initial screening, we have instead opted for the simultaneous use of trypomastigote and intracellular amastigotes forms that are present during both acute and chronic phases of the disease. This approach is in accordance with the Drugs for Neglected Diseases Initiative guidelines (DNDi). Moreover, it also has the advantage of evaluating bioactive compounds in infected cells while at the same time monitoring their effects on both the relevant forms of the parasite in the same system. Benznidazole was used as a positive control against T. cruzi and cytotoxicity was determined in mammalian L929 cells (Table 1). The bioavailability profile of the flavanones was evaluated by applying the Lipinski rule and data related to the risk of toxicity (mutagenicity, tumorigenicity, irritability, and effects on the reproductive system) carried out through online programs “Molinspiration” and “OSIRIS property explorer” (Table 1). […] Nevertheless, this preliminary result motivated us to investigate other analogs bearing substituents in order to improve potency and selectivity. […] Moreover, the selectivity of 2d was almost 4 times greater than 2a. The importance of methoxy substituents for trypanocidal activity has been noted in other studies. […] These compounds resembled more closely the chemical structure of the trypanocidal natural product (brevifolin carboxylate) that these structures were based on. Some enhancement in the trypanocidal activity of hybrid coumarin-chalcone compounds was also noted when the methoxy groups were introduced into either the 2 or 5 positions of the benzene ring. The inclusion of a pyridine moiety in compound 2e was supported by previous reports describing the anti-T. cruzi activity of 2-pyridyl derivatives and their capacity to inhibit cruzain catalytic activity. […] No improvements in anti-T. cruzi activity were also observed for flavanones substituted at the benzoyl moiety (2g–2o and 2v–2x). […] The physicochemical drug descriptors of the molecular properties for the synthesized compounds were calculated by Molinspiration software (Table 1). The majority of the tested compounds satisfy the Lipinski rule with no violations and therefore displaying potentially good bioavailability. There were no linear correlations observed between molecular hydrophobicity and bioactivity.
The in vitro anti-T. cruzi activity was evaluated on L929 cells (mouse fibroblasts) infected with Tulahuen strain of the parasite expressing the Escherichia coli β-galactosidase as reporter gene. Briefly, for the bioassay, 4000 L929 cells were added to each well of a 96-well microtiter plate. After an overnight incubation, 40,000 trypomastigotes were added to the cells and incubated for 2 h. Then, the medium containing extracellular parasites were replaced with 200 μL of fresh medium and the plate was incubated for an additional 48 h to establish the infection. For IC50 determination, the cells were exposed to each synthesized compound at serial decreasing dilutions and the plate was incubated for 96 h. After this period, 50 μL of 500 μM chlorophenol red beta-D-galactopyranoside (CPRG) in 0.5% Nonidet P40 was added to each well, and the plate was incubated for 16–20 h, after which the absorbance at 570 nm was measured. Controls with uninfected cells, untreated infected cells, infected cells treated with Benznidazole at 3.8 μM (positive control) or DMSO 1% were used. The results were expressed as the percentage of T. cruzi growth inhibition in compound-tested cells as compared to the infected cells and untreated cells. The IC50 values were calculated by linear interpolation. Quadruplicates were run in the same plate, and the experiments were repeated at least once.

Row | Compound | IC50 [2] | CC50 at 96 h [4] | SI (selectivity index calculated from CC50/IC50) (L929 cells) | IC50 [5] | further results
1 | COc1cc2c(cc1O)OC[C@H](c1cc3c(cc1O)OCO3)[C@H]2O [Pumilanol] | – | – | – | – | IC50 [1]: 10.1 µM
2 | COc1ccc(-c2cc(=O)c3c(O)c(OC)c(O)cc3o2)cc1 [Pectolinaringenin] | 164 µM | – | – | – | –
3 | COc1ccc2c(=O)cc(-c3ccccc3)oc2c1 [7-Methoxyflavone] | – | – | – | – | IC50 [3]: 3.12 mM
4 | COc1c(O)cc2oc(-c3ccc(O)cc3)cc(=O)c2c1O [Hispidulin] | 268 µM | – | – | – | –
5 | COc1ccc([C@@H]2Oc3ccccc3C(=O)[C@H]2C(=O)c2ccc(C)cc2)cc1 (relative stereo) [Compound 2i, trans-2-(4-methoxyphenyl)-3-(4-methylbenzoyl)chroman-4-one] | – | 107 µM | 4.3 | 25 µM | –
6 | COc1ccc(C(=O)[C@@H]2C(=O)c3ccccc3O[C@H]2c2ccccc2)cc1 (relative stereo) [Compound 2l, trans-3-(4-methoxybenzoyl)-2-phenylchroman-4-one] | – | 223 µM | 1 | 223 µM | –
7 | O=c1cc(-c2ccccc2)oc2ccccc12 [Flavone] | – | – | – | – | IC50 [3]: 9.52 mM
8 | COc1cc(O)c2c(c1)O[C@H](c1ccc(O)cc1)CC2=O [Sakuranetin] | 70.5 µM | – | – | – | –
9 | O=C(c1ccc(Cl)cc1)[C@@H]1C(=O)c2ccccc2O[C@H]1c1ccccc1 (relative stereo) [Compound 2k, trans-3-(4-chlorobenzoyl)-2-phenylchroman-4-one] | – | 110 µM | 3.8 | 29.3 µM | –
10 | O=C(c1ccccc1)[C@@H]1C(=O)c2ccccc2O[C@H]1c1ccc(OCc2ccccc2)cc1 (relative stereo) [Compound 2f, trans-3-benzoyl-2-(4-(benzyloxy)phenyl)chroman-4-one] | – | 92.1 µM | 12.1 | 7.6 µM | –
